From ChEMBL document CHEMBL3994620, “Synthesis and antioxidant activity of a procyanidin B3 analogue” (Bioorg Med Chem Lett, 2017) come the findings set out here.

This test can be described thus: Antioxidant activity assessed as second order rate constant for galvinoxyl radical scavenging activity by UV-vis spectrophotometry. The class given is functional.
On to `Oc1cc(O)c2c(c1)O[C@H](c1ccc(O)c(O)c1)[C@@H](O)[C@@H]2c1c(O)cc(O)c2c1O[C@H](c1ccc(O)c(O)c1)[C@@H](O)C2`, for which the K came out at 1 ×10² /M/s.

Regarding `Oc1cc(O)c2c(c1)O[C@H](c1ccc(O)c(O)c1)[C@@H](O)C2`, the K was found to be 26 M⁻¹ s⁻¹. Regarding `CC1(C)O[C@H]2Cc3c(O)cc(O)c([C@@H]4c5c(O)cc(O)cc5O[C@H](c5ccc(O)c(O)c5)[C@H]4O)c3O[C@@H]2c2cc(O)c(O)cc21`, the K was 1.89 ×10² /M/s.
